Values joined by “and” are separate entries in the source; they are usually repeats but may differ in a detail not shown here. Equal values may be shown once.
System: mouse counterpart genes
Test: Mouse GeneChip (MG-U74A to MG-U74C) analysis of lung and trachea of the OVA antigen-exposed bronchial hypersensitivity model, S-Sal group versus S-OVA group
Format: in vivo
[1] = S-Sal vs S-OVA group, 2nd, P/A: P
[2] = S-Sal vs S-OVA group, 3rd, P/A: A
[3] = S-Sal vs S-OVA group, 3rd, P/A: P

ovalbumin [OVA antigen, ovalbumin antigen used for sensitization and inhalation to induce bronchial hypersensitivity in mice]
0.714 and 0.769: Fold Change, a disintegrin and metalloprotease domain 28 (mouse probe 101723_r_at) (mouse, in vivo)
1.7: Fold Change, serine (or cysteine) proteinase inhibitor, clade B (ovalbumin), member 2 (mouse Probe ID 92978_s_at) [2] | Fold Change, acid phosphatase 5, tartrate resistant (mouse Probe ID 98859_at) [3]
0.625: Fold Change, DNA-damage inducible transcript 3 (mouse Probe ID 101429_at) [2] | Fold Change, keratin complex 1, acidic, gene 16 (mouse Probe ID 164428_i_at) [2] | Fold Change, ubiquitin D (mouse Probe ID 92715_at) [2]
0.714: Fold Change, RIKEN cDNA A2301D9K23 gene (mouse Probe ID 166475_r_at) (mouse, in vivo) | Fold Change, cadherin 6 (mouse Probe ID 101730_at) (mouse, in vivo) | Fold Change, dipeptidylpeptidase 4 (mouse Probe ID 92634_at) (mouse, in vivo) | Fold Change, fatty acid binding protein 4, adipocyte (mouse Probe ID 100567_at) (mouse, in vivo) | Fold Change, fetuin beta (mouse Probe ID 108524_at) (mouse, in vivo) | Fold Change, hydroxysteroid (17-beta) dehydrogenase 2 (mouse Probe ID 166141_i_at) (mouse, in vivo) | Fold Change, intercellular adhesion molecule (mouse Probe ID 96752_at) (mouse, in vivo) | Fold Change, interferon gamma inducible protein 30 (mouse probe 164423_at) (mouse, in vivo) | Fold Change, low density lipoprotein receptor-related protein associated protein 1 (mouse probe 100086_at) (mouse, in vivo) | Fold Change, low density lipoprotein receptor-related protein associated protein 1 (mouse probe 161988_f_at) (mouse, in vivo) | Fold Change, nitric oxide synthase 2, inducible, macrophage (mouse Probe ID 104420_at) (mouse, in vivo) | Fold Change, nuclear factor, interleukin 3, regulated (mouse Probe ID 164758_i_at) (mouse, in vivo) | Fold Change, phosphotidylinositol transfer protein, beta (mouse probe 102696_s_at) (mouse, in vivo) | Fold Change, serine (or cysteine) proteinase inhibitor, clade B (ovalbumin), member 6 (mouse Probe ID 96060_at) (mouse, in vivo) | Fold Change, ubiquitin D (mouse Probe ID 92715_at) (mouse, in vivo)
1.5: Fold Change, cytokine inducible SH2-containing protein 1 (mouse Probe ID 92832_at) [3] | Fold Change, expressed sequence AI463430 (mouse Probe ID 112883_at) [3]
0.769 and 0.909: Fold Change, hydroxysteroid (17-beta) dehydrogenase 2 (mouse Probe ID 169670_at) (mouse, in vivo) | Fold Change, sialyltransferase 1 (beta-galactoside alpha-2,6-sialyltransferase) (mouse Probe ID 167200_r_at) (mouse, in vivo)
0.909: Fold Change, DNA segment. Chr 16. ERATO Doi 269, expressed (mouse probe 97821_at) (mouse, in vivo) | Fold Change, DNA segment. Chr 16. ERATO Doi 269, expressed (mouse probe 97822_at) (mouse, in vivo) | Fold Change, DnaJ (Hsp40) homolog, subfamily A, member 1 (mouse Probe ID 97261_at) (mouse, in vivo) | Fold Change, SAM domain and HD domain, 1 (mouse Probe ID 103080_at) (mouse, in vivo) | Fold Change, cathepsin C (mouse Probe ID 101020_at) (mouse, in vivo) | Fold Change, dual specificity phosphatase 14 (mouse Probe ID 171285_at) (mouse, in vivo) | Fold Change, expressed sequence AI463430 (mouse Probe ID 112883_at) (mouse, in vivo) | Fold Change, expressed sequence AI839647 (mouse Probe ID 110839_at) (mouse, in vivo) | Fold Change, growth arrest and DNA-damage-inducible 45 gamma (mouse Probe ID 109336_at) (mouse, in vivo) | Fold Change, hydroxysteroid (17-beta) dehydrogenase 2 (mouse Probe ID 101891_at) (mouse, in vivo) | Fold Change, membrane-associated protein 17 (mouse probe 96935_at) (mouse, in vivo) | Fold Change, neurotrophic tyrosine kinase, receptor type 1 (mouse probe 110116_at) (mouse, in vivo) | Fold Change, osteoblast specific factor 2 (fasciclin I-like) (mouse Probe ID 92593_at) (mouse, in vivo) | Fold Change, procollagen lysine, 2-oxoglutarate 5-dioxygenase 2 (mouse Probe ID 114376_at) (mouse, in vivo) | Fold Change, reticulocalbin 2 (mouse Probe ID 93281_at) (mouse, in vivo) | Fold Change, thioredoxin reductase 1 (mouse Probe ID 99985_at) (mouse, in vivo)
2.2: Fold Change, neutrophil cytosolic factor 2 (mouse Probe ID 102326_at) [1]
1.6: Fold Change, signal transducer and activator of transcription 1 (mouse Probe ID 101465_at) [1]
1.3: Fold Change, RAS guanyl releasing protein 1 (mouse Probe ID 98307_at) [2] | Fold Change, nuclear factor, interleukin 3, regulated (mouse Probe ID 164758_i_at) [2] | Fold Change, ubiquitin fusion degradation 1 like (mouse Probe ID 93303_at) [3] | Fold Change, zinc finger protein 263 (mouse Probe ID 109154_at) [3]
1.2: Fold Change, cathepsin C (mouse Probe ID 161251_f_at) [2] | Fold Change, serine (or cysteine) proteinase inhibitor, clade B (ovalbumin), member 2 (mouse Probe ID 137166_r_at) [2] | Fold Change, neutrophil cytosolic factor 2 (mouse Probe ID 102326_at) [3]
2.3: Fold Change, dual specificity phosphatase 14 (mouse Probe ID 171285_at) [2]
0.909 and 0.769: Fold Change, ESTs AI844322 (mouse Probe ID 110469_at) (mouse, in vivo) | Fold Change, cholesterol 25-hydroxylase (mouse probe 133666_at) (mouse, in vivo) | Fold Change, thioredoxin reductase 1 (mouse Probe ID 161284_r_at) (mouse, in vivo)
0.667: Fold Change, ubiquitin D (mouse Probe ID 169362_f_at) [2]
0.769: Fold Change, A kinase (PRKA) anchor protein 10 (mouse probe 163162_at) (mouse, in vivo) | Fold Change, MP and activin membrane-bound inhibitor, homolog (Xanopus laevis) (mouse probe 162531_at) (mouse, in vivo) | Fold Change, RIKEN cDNA 6330404C01 gene (mouse Probe ID 166590_at) (mouse, in vivo) | Fold Change, a disintegrin and metalloprotease domain 8 (mouse probe 103024_at) (mouse, in vivo) | Fold Change, acid phosphatase 5, tartrate resistant (mouse Probe ID 98859_at) (mouse, in vivo) | Fold Change, claudin 5 (mouse probe 104516_at) (mouse, in vivo) | Fold Change, decay accelerating factor 1 (mouse probe 164905_r_at) (mouse, in vivo) | Fold Change, fructose bisphosphatase 1 (mouse Probe ID 96918_at) (mouse, in vivo) | Fold Change, interleukin 1 receptor-like 1 (mouse probe 98501_at) (mouse, in vivo) | Fold Change, matrix metalloproteinase 7 (mouse probe 162318_r_at) (mouse, in vivo) | Fold Change, polycystic kidney disease 2 (mouse probe 100951_at) (mouse, in vivo) | Fold Change, transforming growth factor, beta 2 (mouse Probe ID 93300_at) (mouse, in vivo) | Fold Change, transmembrane 4 superfamily member 8 (mouse Probe ID 97912_at) (mouse, in vivo) | Fold Change, zinc finger protein 263 (mouse Probe ID 109154_at) (mouse, in vivo)
8.7: Fold Change, acid phosphatase 5, tartrate resistant (mouse Probe ID 162543_r_at) [2]
1: Fold Change, integrin-associated protein (mouse Probe ID 103611_at) [1] | Fold Change, ribosomal protein S16 (mouse Probe ID 97647_at) [1] | Fold Change, RIKEN cDNA 4933419D20 gene (mouse Probe ID 112237_at) [3] | Fold Change, cathepsin C (mouse Probe ID 101019_at) [3] | Fold Change, dual specificity phosphatase 14 (mouse Probe ID 162702_at) [3] | Fold Change, integrin-associated protein (mouse Probe ID 103611_at) [3] | Fold Change, ribosomal protein S16 (mouse Probe ID 97647_at) [3] | Fold Change, signal transducer and activator of transcription 1 (mouse Probe ID 101465_at) [3]
1.4: Fold Change, RIKEN cDNA A2301D9K23 gene (mouse Probe ID 163453_at) [2] | Fold Change, ubiquitin D (mouse Probe ID 168938_r_at) [2] | Fold Change, DEAD (aspartate-glutamate-alanine-aspartate) box polypeptide 5 (mouse Probe ID 113899_at) [3]
0.833: Fold Change, expressed sequence AI839647 (mouse Probe ID 110839_at) [1] | Fold Change, reticulocalbin 2 (mouse Probe ID 93281_at) [1] | Fold Change, zinc finger protein 263 (mouse Probe ID 109154_at) [1] | Fold Change, RIKEN cDNA 4933419D20 gene (mouse Probe ID 97442_at) [3]
1.9: Fold Change, signal transducer and activator of transcription 1 (mouse Probe ID 114635_at) [1]
1.1: Fold Change, cathepsin C (mouse Probe ID 101019_at) [1] | Fold Change, dual specificity phosphatase 14 (mouse Probe ID 162702_at) [1] | Fold Change, dual specificity phosphatase 14 (mouse Probe ID 165144_r_at) [2] | Fold Change, keratin complex 1, acidic, gene 16 (mouse Probe ID 103589_at) [2] | Fold Change, ribosomal protein S16 (mouse Probe ID 169860_r_at) [2] | Fold Change, DEAD (aspartate-glutamate-alanine-aspartate) box polypeptide 5 (mouse Probe ID 93493_at) [3] | Fold Change, fatty acid binding protein 4, adipocyte (mouse Probe ID 100567_at) [3] | Fold Change, signal transducer and activator of transcription 1 (mouse Probe ID 114635_at) [3]
0.455: Fold Change, serine (or cysteine) proteinase inhibitor, clade B (ovalbumin), member 2 (mouse Probe ID 92978_s_at) [1]
2.4: Fold Change, RAS guanyl releasing protein 1 (mouse Probe ID 167498_i_at) [2]
